# Measurements as given in patent US8946262B2, “Methods of preventing and treating gastrointestinal dysfunction” (Adolor Corporation, priority 2003, dated 2015).
# What was measured:
# GI transit = GI transit score (GITS) by transit of radio-opaque markers (SITZMARKS) in subjects given loperamide; assay type: in vivo, healthy subjects; details: for GI Score: x-ray Day 4, group mean, normal 255.56
# Method: Subjects were randomly assigned to receive one of the following five treatments: • Group 1: […] Study Assessments Subjects were assessed for their pain at the I.V. infusion site using a categorical four-point verbal scale (i.e., no discomfort/pain, mild discomfort/pain, moderate pain, or severe pain). The Investigator also assessed certain characteristics (e.g., erythema) of the I.V. site (i.e., none, mild, moderate, or severe). Abdominal x-rays and x-rays of stool samples were performed to determine the location of the […] markers. Oral […] capsules were administered on Days 1, 2, and 3 at the same time that study medication is administered each day.
# [1] = target: μ opioid receptors in the GI tract (Homo sapiens, UniProt P35372); assay: Free alvimopan plasma concentration after a 12 mg oral dose before surgery, compared with Ki; assay type: in vivo, patients
# Method: A Practical Introduction to Structure, Mechanism, and Data Analysis, 2nd Edition, (New York: Wiley-VCH, 2000), page 88, the disclosure of which is incorporated herein by reference.
# Twelve milligrams of alvimopan (two 6 mg capsules) was administered orally to patients about 120 minutes prior to surgery. The free alvimopan plasma concentration was measured for about 24 hours.
# Solubility in water = assay type: physicochemical; details: except at low or high pH conditions
# [2] = Plasma exposure (AUC (τ)) of I.V. alvimopan given for 4 days with loperamide; assay type: in vivo, healthy subjects; details: group mean
# Method: Subjects were randomly assigned to receive one of the following five treatments: • Group 1: […] Study Assessments Serial blood samples were collected for the determination of concentrations of alvimopan and its amide hydrolysis metabolite in plasma. The appropriate dose was drawn into the delivery system, normal saline was added to bring the total volume to 6 mL, and the contents will be mixed thoroughly. Placebo for alvimopan I.V. was 6 mL of normal saline. […] The first eight subjects in each treatment group followed a full sampling schedule and the last four subjects followed a sparse sampling schedule. For the first eight subjects (full sampling schedule), blood samples was collected just prior to administration of alvimopan I.V. on Days 1 through 4 (four samples); and at 0.5, 1, 1.5, 2, 5, 10, 20, 30, and 60 minutes and at 2, 4, 6, 8, 10, 12, 16, 24, 48, 72, 96, 120, 144, and 168 hours after the end of the infusion of alvimopan I.V. on Day 4. This is a total of 27 samples per subject (135 mL per subject). For the last four subjects in each treatment group (sparse sampling schedule), blood was collected prior to administration of alvimopan I.V. on Days 1 through 4 (four samples), and immediately following the last infusion on Day 4. Subjects were randomized to have one sample collected during each of the following intervals, relative to the end of the infusion on Day 4: […]
# [3] = Group 3 (alvimopan 1 mg I.V. b.i.d. + loperamide 2 mg p.o. q.i.d.)
# [4] = Group 4 (alvimopan 0.45 mg I.V. b.i.d. + loperamide 2 mg p.o. q.i.d.)
# [5] = Group 5 (alvimopan 0.1 mg I.V. b.i.d. + loperamide 2 mg p.o. q.i.d.)
# Sequence of μ opioid receptors in the GI tract (P35372 whole entry): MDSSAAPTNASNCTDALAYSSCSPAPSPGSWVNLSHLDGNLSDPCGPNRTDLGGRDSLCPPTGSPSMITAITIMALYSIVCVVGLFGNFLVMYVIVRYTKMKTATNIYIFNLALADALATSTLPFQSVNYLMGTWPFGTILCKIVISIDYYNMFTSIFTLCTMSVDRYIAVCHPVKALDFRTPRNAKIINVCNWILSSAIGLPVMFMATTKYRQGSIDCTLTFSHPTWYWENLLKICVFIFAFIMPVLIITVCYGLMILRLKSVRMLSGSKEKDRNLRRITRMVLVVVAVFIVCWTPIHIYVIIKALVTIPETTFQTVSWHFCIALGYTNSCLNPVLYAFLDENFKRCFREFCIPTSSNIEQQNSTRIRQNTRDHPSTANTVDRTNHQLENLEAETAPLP
"Maximum free plasma concentrations achieved relative to the Ki ([1]; single 12 mg oral dose, FIG. 1) [fold]","receptor occupancy at 12 mg ([1]; single 12 mg oral dose, read-out: estimated receptor occupancy) [%]",solubility in water (Solubility in water),"AUC (τ) of Alvimopan [2, 3] [ng·mL/h]","AUC (τ) of Alvimopan [2, 4] [ng·mL/h]","AUC (τ) of Alvimopan [2, 5] [ng·mL/h]",Compound,GI Score (GI transit; [3]),GI score compared with Group 2 (loperamide + placebo) and normal (Group 1) (GI transit; Group 4),GI Score (GI transit; [4]),GI score compared with Group 2 (loperamide + placebo) and normal (Group 1) (GI transit; Group 5),GI Score (GI transit; [5]),"free plasma concentrations versus saturation of μ opioid receptors in the GI tract ([1]; single 12 mg oral dose (two 6 mg capsules), about 120 minutes prior to surgery, FIG. 1)",GI Score (GI transit; Group 2: loperamide 2 mg p.o. q.i.d. + placebo for alvimopan I.V.)
11,> 68,low solubility in water,4.36,22.06,49.79,"C[C@H]1CN(C[C@H](Cc2ccccc2)C(=O)NCC(=O)O)CC[C@@]1(C)c1cccc(O)c1 [alvimopan, [[(2S)-2-[[(3R,4R)-4-(3-hydroxyphenyl)-3,4-dimethylpiperidin-1-yl]methyl]-3-phenylpropanoyl]amino]acetic acid dihydrate]",231,statistically different from Group 2,274.62,statistically different from Group 2,278.5,sufficient to substantially saturate μ opioid receptors in the GI tract,
,,,,,,"CN(C)C(=O)C(CCN1CCC(O)(c2ccc(Cl)cc2)CC1)(c1ccccc1)c1ccccc1 [loperamide, reference compound]",,,,,,,208.67
